Measurements published in patent US20250230193A1, “CYCLIC COMPOUND HAVING SELECTIVE KRAS INHIBITORY EFFECT ON HRAS AND NRAS” (CHUGAI SEIYAKU KABUSHIKI KAISHA, priority 2022, published 2025).

Experiments:
[1] = molecular target: GDP-bound NRAS wild-type protein (Homo sapiens, UniProt P01111); test: Binding to NRAS by surface plasmon resonance (SPR), Single Cycle Kinetics
[2] = molecular target: GDP-bound HRAS wild-type protein (Homo sapiens, UniProt P01112); test: Binding to HRAS by surface plasmon resonance (SPR), Single Cycle Kinetics
GDP-bound HRAS wild-type protein, sequence (P01112 whole entry): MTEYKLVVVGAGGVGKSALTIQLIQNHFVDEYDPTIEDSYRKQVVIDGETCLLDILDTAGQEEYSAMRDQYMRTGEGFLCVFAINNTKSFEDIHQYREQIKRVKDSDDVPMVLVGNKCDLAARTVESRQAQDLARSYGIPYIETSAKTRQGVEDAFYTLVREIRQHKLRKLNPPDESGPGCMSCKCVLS

[3] = KD ratio, GDP-bound NRAS wild-type vs GDP-bound KRAS wild-type, SPR
[4] = KD ratio, GDP-bound HRAS wild-type vs GDP-bound KRAS wild-type, SPR
[5] = SPR, GDP-bound wild-type proteins

GDP-bound NRAS wild-type protein, sequence (P01111 whole entry): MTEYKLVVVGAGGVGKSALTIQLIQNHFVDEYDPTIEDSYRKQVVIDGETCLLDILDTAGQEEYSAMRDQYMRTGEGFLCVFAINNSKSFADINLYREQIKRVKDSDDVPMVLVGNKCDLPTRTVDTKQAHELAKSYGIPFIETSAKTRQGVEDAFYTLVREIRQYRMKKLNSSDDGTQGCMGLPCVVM

Compound: CCCN(C)C(=O)[C@@H]1CC(=O)N(C)[C@@H](CC(F)F)C(=O)N[C@@H]([C@@H](C)CC)C(=O)N(C)CC(=O)N(C)[C@H]2C/C=C\CCN(C2=O)[C@@H](Cc2ccc(C(F)(F)F)cc2)C(=O)N(C)CC(=O)N[C@@H](CCc2ccc(C(F)(F)F)c(OC)c2)C(=O)N2C[C@@H](C)C[C@H]2C(=O)NC2(CC(C)(C)C2)C(=O)N(C)[C@@H](C2CCCC2)C(=O)N1C [PP1989]
- NRAS/KRAS (ratio of KD value for NRAS to KD value for KRAS) [1, 3]: A (a compound having 10 or more and less than 20 is denoted as A)
- HRAS/KRAS (ratio of KD value for HRAS to KD value for KRAS) [2, 4]: A (a compound having 10 or more and less than 20 is denoted as A)

Compound: CCC[C@H]1C(=O)N[C@@H](C2CCCC2)C(=O)N(C)CC(=O)N(C)[C@H]2C/C=C\CCN(C2=O)[C@@H](Cc2ccc(C)cc2)C(=O)N(C)CC(=O)N[C@@H](CCc2cc(F)c(C(F)(F)F)c(F)c2)C(=O)N2C[C@H](OCC)C[C@H]2C(=O)NC2(CC(C)(C)C2)C(=O)N(C)[C@@H](C2CCCC2)C(=O)N(C)[C@H](C(=O)N(C)C)CC(=O)N1C [PP2988]
- NRAS/KRAS (ratio of KD value with respect to GDP-bound NRAS wild-type protein to KD value with respect to KRAS) [1, 5]: B (a compound having 3 or more and less than 10 is denoted as B)
- HRAS/KRAS (ratio of KD value with respect to GDP-bound HRAS wild-type protein to KD value with respect to KRAS) [2, 5]: B (a compound having 3 or more and less than 10 is denoted as B)

Compound: CCC[C@H]1C(=O)N[C@@H]([C@@H](C)CC)C(=O)N(C)CC(=O)N(C)[C@H]2C/C=C\CCN(C2=O)[C@@H](Cc2ccc(C(F)(F)F)cc2)C(=O)N(C)CC(=O)N[C@@H](CCc2cc(F)c(C(F)(F)F)c(F)c2)C(=O)N2C[C@H](OCC)C[C@H]2C(=O)NC2(CCC2)C(=O)N(C)[C@@H](C2CCCC2)C(=O)N(C)[C@H](C(=O)N2CC3CCC(C2)O3)CC(=O)N1C [PP1315]
- NRAS/KRAS (ratio of KD value for GDP-bound NRAS wild-type protein to KD value for KRAS) ([1]; SPR, KD ratio class): AA (a compound having 20 or more is denoted as AA)
- HRAS/KRAS (ratio of KD value for GDP-bound HRAS wild-type protein to KD value for KRAS) ([2]; SPR, KD ratio class): A (a compound having 10 or more and less than 20 is denoted as A)

Compound: CCO[C@@H]1C[C@H]2C(=O)NC3(CCC3)C(=O)N(C)[C@@H](C3CCCC3)C(=O)N(C)[C@H](C(=O)N(C)C)CC(=O)N(C)[C@@H](C)C(=O)N[C@@H]([C@H](C)CC)C(=O)N(C)CC(=O)N(C)[C@H]3CCCCN(C3=O)[C@@H](Cc3ccc(C(F)(F)F)cc3)C(=O)N(C)CC(=O)N[C@@H](CCc3cc(F)c(C(F)(F)F)c(F)c3)C(=O)N2C1 [PP0730]
- NRAS/KRAS (ratio of KD value with respect to GDP-bound NRAS wild-type protein to KD value with respect to KRAS) ([1]; SPR): C (A compound having a KD ratio of 0.1 or more and less than 3 is denoted as C)
- HRAS/KRAS (ratio of KD value with respect to GDP-bound HRAS wild-type protein to KD value with respect to KRAS) ([2]; SPR): C (A compound having a KD ratio of 0.1 or more and less than 3 is denoted as C)

Compound: CCO[C@@H]1C[C@H]2C(=O)NC3(CC(C)(C)C3)C(=O)N(C)[C@@H](C3CCCC3)C(=O)N(C)[C@H](C(=O)N3CCCC3)CC(=O)N(C)[C@H]3CCCC/C=C/c4ccc(cc4)C[C@@H](C(=O)N(C)CC(=O)N[C@@H](CCc4ccc(Cl)c(Cl)c4)C(=O)N2C1)N1CC/C=C\C[C@@H](C1=O)N(C)C(=O)CN(C)C(=O)[C@H]([C@@H](C)CC)NC3=O [PP2593]
- NRAS/KRAS (ratio of KD value with respect to GDP-bound NRAS wild-type protein to KD value with respect to KRAS) ([1]; class symbols): A (a compound having 10 or more and less than 20 is denoted as A)
- HRAS/KRAS (ratio of KD value with respect to GDP-bound HRAS wild-type protein to KD value with respect to KRAS) ([2]; class symbols): A (a compound having 10 or more and less than 20 is denoted as A)

Compound: CCO[C@@H]1C[C@H]2C(=O)N(C)C3(CCC3)C(=O)N(C)[C@@H](C(CC)CC)C(=O)N(C)[C@H](C(=O)N(C)C)CC(=O)N(C)[C@@H](COC)C(=O)N[C@@H]([C@@H](C)CC)C(=O)N(C3CC3)CC(=O)N(C)[C@H]3C/C=C\CCN(C3=O)[C@@H](CC3CCCCC3)C(=O)N(C)CC(=O)N[C@@H](CCc3ccc(C(F)(F)F)c(OC)c3)C(=O)N2C1 [PP2339]
- NRAS/KRAS (ratio of KD value with respect to NRAS to KD value with respect to KRAS) ([1]; SPR, GDP-bound NRAS wild-type vs GDP-bound KRAS wild-type): A (a compound having 10 or more and less than 20 is denoted as A)
- HRAS/KRAS (ratio of KD value with respect to HRAS to KD value with respect to KRAS) ([2]; SPR, GDP-bound HRAS wild-type vs GDP-bound KRAS wild-type): A (a compound having 10 or more and less than 20 is denoted as A)

Compound: CC[C@H](C)[C@@H]1NC(=O)[C@H](COC)N(C)C(=O)C[C@@H](C(=O)N2CCOCC2)N(C)C(=O)[C@H](C2CCCC2)N(C)C(=O)C2(CCC2)NC(=O)[C@@H]2CCCN2C(=O)[C@H](CCc2cc(F)c(C(F)(F)F)c(F)c2)NC(=O)CN(C)C(=O)[C@H](Cc2ccc(C(F)(F)F)cc2)N2CCCCC[C@@H](C2=O)N(C)C(=O)[C@@H]2CCN2C1=O [PP0865]
- NRAS/KRAS (ratio of KD value with respect to NRAS to KD value with respect to KRAS) [1, 3]: B (a compound having 3 or more and less than 10 is denoted as B)
- HRAS/KRAS (ratio of KD value with respect to HRAS to KD value with respect to KRAS) [2, 4]: B (a compound having 3 or more and less than 10 is denoted as B)
